Experimental data: US8263749B2, “Imatinib immunoassay” (Saladax Biomedical Inc., priority 2009, dated 2012)

Assays:
Type in all cases: binding, mouse
[1] = test system: polyclonal antibodies to imatinib (Example 8a); assay: Indirect competitive microtiter plate immunoassay (ELISA), cross-reactivity with polyclonal antibodies to imatinib; conditions: for Cross-reactivity of competitive immunoassay: ratio of IC50 imatinib to IC50 analyte
[2] = test system: monoclonal antibody 9F2-4-29 to imatinib; assay: Indirect competitive microtiter plate immunoassay (ELISA), cross-reactivity with monoclonal antibody 9F2-4-29; conditions: monoclonal antibody number 9F2-4-29; ratio of IC50 imatinib to IC50 analyte
Description: (§1) Mice from example 8a that were immunized with imatinib-KLH prepared in 6b were used to produce monoclonal antibodies. For monoclonal antibodies starting three days before the fusion, the mice were injected i.p. with 400 μg (3 days before fusion), 200 μg (2 days before fusion), and 200 μg (1 day before fusion) of imatinib-KLH in PSS/DMSO prepared in example 6b. Spleen cells were isolated from the selected mice and fused with 2×10^7 SP2/0 cells with 50% polyethylene glycol 1500 according to the method of Coligan, J. E. et al., eds., Current Protocols in Immunology, 2.5.1-2.5.8, (1992), Wiley & Sons, NY. The fused cells were plated on ten 96-well plates in DMEM/F12 supplemented with 20% FetalClone I, 2% L-glutamine (100 mM) and 2% 50× HAT. Two to three weeks later, the hybridoma supernatant was assayed for the presence of anti-imatinib antibodies by ELISA (as in example fob). […] Clones positive by ELISA were subcloned twice by limiting dilution according to the method disclosed in Coligan, J. E. et al., eds., Current Protocols in Immunology, 2.5.8-2.5.17, (1992), Wiley & Sons, NY. […] These monoclonal antibodies were tested for imatinib binding and cross-reactivity to a major imatinib metabolite, N-desmethyl imatinib, by indirect competitive microtiter plate assay as described in example 11. […]

[3] = test system: monoclonal antibody 9F2-4-31 to imatinib; assay: Indirect competitive microtiter plate immunoassay (ELISA), cross-reactivity with monoclonal antibody 9F2-4-31; conditions: monoclonal antibody number 9F2-4-31; ratio of IC50 imatinib to IC50 analyte
Description: as §1

antibodies to imatinib = assay: Immunoassay reactivity of the antibodies produced in accordance with the invention (polyclonal and monoclonal); conditions: summary of Tables I and II
Description: Initial doses, bleedings and booster shots can be given according to accepted protocols for eliciting immune responses in animals, e.g., in a preferred embodiment mice received an initial dose of 100 ug immunogen/mouse, i.p. and two or more subsequent booster shots of between 50 and 100 ug immunogen/mouse over a six month period.
The ELISA method for determining IC50 values and cross-reactivity was performed with the microtiter plates that were sensitized with imatinib-BSA described in Examples 9. Analytes—imatinib and N-desmethyl imatinib were diluted in diH2O over a concentration range of 10 to 1,000,000 ng/mL. […] The assays were all performed by diluting the concentration of the antibodies in each of the wells to the titer determined in Example 10a. […] Following the incubation for color development, 50 of stop solution (1.5% sodium fluoride in di H2O) was added to each well to stop the color development and after 20 seconds of shaking the absorbance was determined at 650 nm (Molecular Devices Plate Reader). The amount of antibody in a well was proportional to the absorbance measured and inversely proportional to the amount of imatinib in the sample. The IC50's of imatinib and N-desmethyl imatinib were determined by constructing dose-response curves with the absorbance in the wells plotted versus analyte concentration in the wells. […]

[4] = test system: selected monoclonal antibodies to imatinib (Example 8b); assay: Indirect competitive microtiter plate immunoassay (ELISA), cross-reactivity with selected monoclonal antibodies; conditions: measured with selected monoclonal antibodies
Description: Mice from example 8a that were immunized with imatinib-KLH prepared in 6b were used to produce monoclonal antibodies. For monoclonal antibodies starting three days before the fusion, the mice were injected i.p. with 400 μg (3 days before fusion), 200 μg (2 days before fusion), and 200 μg (1 day before fusion) of imatinib-KLH in PSS/DMSO prepared in example 6b. Spleen cells were isolated from the selected mice and fused with 2×10^7 SP2/0 cells with 50% polyethylene glycol 1500 according to the method of Coligan, J. E. et al., eds., Current Protocols in Immunology, 2.5.1-2.5.8, (1992), Wiley & Sons, NY. The fused cells were plated on ten 96-well plates in DMEM/F12 supplemented with 20% FetalClone I, 2% L-glutamine (100 mM) and 2% 50× HAT. Two to three weeks later, the hybridoma supernatant was assayed for the presence of anti-imatinib antibodies by ELISA (as in example fob). Cells from the wells that gave positive ELISA results (example lob) were expanded to 24 well plates. Clones positive by ELISA were subcloned twice by limiting dilution according to the method disclosed in Coligan, J. E. et al., eds., Current Protocols in Immunology, 2.5.8-2.5.17, (1992), Wiley & Sons, NY. Hybridoma culture supernatants containing monoclonal antibody from selected subclones were confirmed for imatinib binding by a competitive ELISA (example 11). […]

[5] = polyclonal Bleed # 1, immunogen of example 6b
[6] = polyclonal Bleed # 2, immunogen of example 6b
[7] = polyclonal Bleed # 3, immunogen of example 6b
[8] = polyclonal Bleed # 4, immunogen of example 6a
[9] = polyclonal Bleed # 5, immunogen of example 6a

Compound | Cross-reactivity of competitive immunoassay [1, 5] [%] | Cross-reactivity of competitive immunoassay [1, 6] [%] | Cross-reactivity of competitive immunoassay [1, 7] [%] | Cross-reactivity of competitive immunoassay [1, 8] [%] | Cross-reactivity of competitive immunoassay [1, 9] [%] | Cross-reactivity of competitive immunoassay [2] [%] | Cross-reactivity of competitive immunoassay [3] [%] | reactivity with the antibodies (antibodies to imatinib) | percent cross-reactivities relative to imatinib ([1]; measured with this pool of (polyclonal) antibodies) | percent cross-reactivities relative to imatinib [4]
Cc1ccc(NC(=O)c2ccc(CN3CCN(C)CC3)cc2)cc1Nc1nccc(-c2cccnc2)n1 [Imatinib] | 100 | 100 | 100 | 100 | 100 | 100 | 100 | – | – | –
Cc1ccc(NC(=O)c2ccc(CN3CCNCC3)cc2)cc1Nc1nccc(-c2cccnc2)n1 [N-desmethyl imatinib] | 1 | 5 | 2 | 7 | 1 | 2.7 | 3.2 | substantially non-reactive | less than or equal to 7% | less than 4%
